The target of test [1] is Protein farnesyltransferase (Mus musculus) (UniProt Q61239+Q8K2I1). Kind of test: Inhibition of Ras-processing in H-Ras transformed NIH3T3 fibroblasts. The test is classed as functional, cell-based.
In test [2] the target is T1, Protein farnesyltransferase (Homo sapiens, UniProt P49354+P49356). Put plainly: Inhibitory activity against farnesyl pyrophosphate. The test is classed as protein-complex assay.
Test [3] addresses Protein farnesyltransferase (Bos taurus, UniProt P29702+P49355). Kind of test: Activity against bovine Farnesyltransferase. The test is classed as protein-complex assay.
Test [4] has as its target T1, Protein farnesyltransferase. Kind of test: Activity against Farnesyltransferase. The test is classed as protein-complex assay.
The target in test [5] is T2, Protein farnesyltransferase (Rattus norvegicus, UniProt Q02293+Q04631). Kind of test: Activity against rat Farnesyltransferase. The test is classed as protein-complex assay.
The subject of test [6] is NIH3T3. Put plainly: Inhibition in clonogenic assay against H-Ras-transformed NIH3T3 cells. As to conditions: Mus musculus. The test is classed as functional, cell-based.
Test [7] can be described thus: Inhibition of K-Ras-transformed fibrosarcoma growth. The test is classed as functional.
The target in test [8] is Geranylgeranyl transferase type I (Homo sapiens, UniProt P49354+P53609). Put plainly: Activity against Geranylgeranyl transferase type I. The test is classed as protein-complex assay.
Test [9] has as its system NIH3T3. Kind of test: Inhibitory activity against Ha-Ras-transformed NIH3T3 cells. The test is classed as functional, Mus musculus.
Test [10] has as its target Protein farnesyltransferase (Mus musculus, UniProt Q61239+Q8K2I1). Kind of test: Inhibition of Ras processing. The test is classed as functional.
The subject of test [11] is NIH3T3. Put plainly: Inhibition of Ras processing in v-Ras-transformed NIH 3T3 cell growth in soft agar at 50 uM. The test is classed as functional, cell-based. The note with it: Mus musculus.
Test [12] deals with T1, Protein farnesyltransferase. Put plainly: Activity against human Farnesyltransferase. The test is classed as protein-complex assay.
The target is the same in test [13]. Kind of test: Inhibitory activity against Ras Farnesyltransferase. The test is classed as protein-complex assay.
The target is the same in test [14]. Put plainly: Activity against Ras Farnesyltransferase from Burkett's lymphoma. The test is classed as protein-complex assay.
For test [15] the target is unchanged. Kind of test: Activity against Ras Farnesyltransferase from human colon carcinoma. The test is classed as protein-complex assay.
For a further test, the system named is Homo sapiens. Kind of test: Inhibition of EJ-1 human bladder carcinoma growth at 100 mg/kg. The test is classed as functional.
Test [16] has as its target T1, Protein farnesyltransferase. Put plainly: Inhibition of H-Ras Farnesyltransferase. The test is classed as protein-complex assay.
The target of test [17] is T2, Protein farnesyltransferase. Put plainly: Activity against rat brain Farnesyltransferase.
Test [18] has as its target T1, Protein farnesyltransferase. Put plainly: Concentration inhibiting farnesylation of p21ras in Ras-transformed cells. The test is classed as functional, cell-based.

Structures are written as SMILES. Non-standard residues stand in square brackets, D forms with d. Residues, ends and D or L forms follow the SMILES beside them. *: point of attachment. Cbz = O=C(OCc1ccccc1)*; Bn = c1ccc(C*)cc1 Some results are limits rather than exact numbers.

By Ki is commonly meant a dissociation constant, usually derived from enzyme kinetics or from competition with a known ligand. One may read the IC50 as the point on the concentration scale where inhibition reaches its midpoint. A low value points to inhibition by little substance. As usually defined, the inhibition in vivo is the relative decrease from the control value, in per cent. Low values mean a response near the control, high ones a response far below the control.

For `CC(C)=CCC/C(C)=C/CC/C(C)=C/C(O)P(=O)(O)O` (centres undefined), in test [1], the Concentration came to 1 µM. The compound further had a Ki in test [2] of 5.2 nM. As to `COC(=O)C1=CC(CO)=COc2oc3cccc(O)c3c(=O)c21` [FUSIDIENOL], the IC50 in [3] is 1000 nM. `C[C@@H](NC(=O)[C@H](Cc1c[nH]c2ccccc12)NC(=O)[C@H](COCc1ccccc1)NC(=O)[C@H](Cc1ccc(OCc2ccccc2)cc1)NC(=O)[C@@H](Cc1c[nH]cn1)NC(=O)OCc1ccccc1)C(N)=O` (Cbz-[dH]Y(Bn)S(Bn)W[dA]-NH2) gave a Concentration in [1] of 25 µM. In [4], this compound had an IC50 of 20 nM. `COC(=O)C(CCSC)NC(=O)CN1C(=O)[C@H](N(C)C(=O)[C@H](N)CS)NC(c2ccccc2)c2ccccc21` (some centres undefined) gave an IC50 in test [5] of 0.85 nM. This counts as sub-nanomolar.

`O=C(N[C@H](Cc1c[nH]cn1)C(=O)N[C@@H](Cc1ccc(OCc2ccccc2)cc1)C(=O)NCCOCc1ccccc1)OCc1ccccc1` showed a Concentration in test [1] of 5 µM. `CSCC[C@H](NC(=O)[C@@H]1Cc2ccccc2CN1C(=O)[C@@H](NCCc1cnc[nH]1)C(C)C)C(=O)O`: the IC50 in the test with NIH3T3 [6] amounted to 3800 nM; in test [5], 0.79 nM.

In turn, `O=C(CN(Cc1ccc(OCc2ccccc2)cc1)C(=O)[C@H](Cc1c[nH]cn1)NC(=O)OCc1ccccc1)NCCOCc1ccccc1` had a Concentration in [1] of 1 µM. In [4], this compound displayed a concentration for half-maximal inhibition (IC50) of 260 nM. On to `CN1C(=O)[C@]23CC4=CC=C[C@H](O)[C@H]4N2C(=O)[C@@]1(CO)SS3` [GLIOTOXIN], for which the Concentration in test [7] turned out to be 6.3 mg/kg. In [4], 1100 nM corresponded to half-maximal inhibition (IC50). For `CN(C(=O)[C@@H](Cc1cnc[nH]1)NC(=O)OCc1ccccc1)[C@@H](Cc1ccc(OCc2ccccc2)cc1)C(=O)NCCOCc1ccccc1`, in test [4], the IC50 was found to be 400 nM. For `COCC[C@@H]1CN(C(=O)c2cccc3ccccc23)CCN1C[C@H](N)CS`, the IC50 worked out at 10000 nM in test [8], 5 nM in test [3] and 500 nM in test [10]. Also, in the test with NIH3T3 [9], the IC75 stood at 40 mg/kg. For the compound `CC[C@@H](C)[C@H](NC[C@@H](NC[C@@H](N)CS)[C@H](C)CC)C(=O)N[C@H]1CCOC1=O`, the results for the IC50 (in test [8]; in the test with NIH3T3 [11]; in [3]) were more than 10000 nM, 50000 nM and 280 nM, respectively. The compound `CCC/C=C\c1ccccc1/C=C/C(=O)N[C@H](Cc1ccc(O)cc1)C(=O)N(C)C(Cc1ccc(OC)c(O)c1Cl)C(=O)N(C)[C@@H](Cc1ccccc1)C(=O)OC[C@@H]1NC(=O)CNC1=O` (some centres undefined) gave an IC50 in test [12] of 100 nM. In the case of `CCC(C)[C@@H](CO[C@@H](Cc1ccccc1)C(=O)N[C@@H](CCS(C)(=O)=O)C(=O)O)NC[C@@H](N)CS` (some centres undefined), the IC50 in [3] turned out to be 240 nM.

With `CC(C)=CCC/C(C)=C/CC/C(C)=C/C(=O)NC(CCC(=O)N[C@H](C(=O)N[C@@H](CC(C)C)C(=O)N[C@@H](CO)C(=O)O)C(C)C)C(=O)O` (some centres undefined), the IC50 in test [13] came out at 33 nM. In test [4], `O=C(N[C@H](Cc1cnc[nH]1)C(=O)N[C@@H](Cc1ccc(OCc2ccccc2)cc1)C(=O)NCCOCc1ccccc1)OCc1ccccc1` showed an IC50 of 20 nM. The same measure, in the same setting: with `CC(C)=CCC/C(C)=C/CC/C(C)=C/CNC(=O)C(COP(=O)(O)O)C(=O)O` (centres undefined) the figure was 83 nM.

On to `CSC[C@H](NC(=O)c1cccc(CNC(=O)[C@@H](N)CS)c1)C(=O)O`, for which the IC50 in test [14] came out at 120 nM; in test [15], 60 nM. The compound `CC(C)=CCC/C(C)=C/CC/C(C)=C/CONC(=O)COP(=O)(O)O` registered an IC50 in test [4] of 75 nM. `CSCC[C@H](NC(=O)[C@H](/C=C\[C@@H](/C=C/[C@@H](N)CS)C(C)C)Cc1ccccc1)C(=O)O` registered an inhibition in vivo at 100 mg/kg with Homo sapiens of 60%. The same compound gave an IC50 in [16] of 11 nM. The compound `CCC(OCCCCNCCSS(=O)(=O)O)C1CCCCC1` (centres undefined) displayed an IC50 in [17] of 2000 nM. The compound further returned a Concentration in test [18] of 25 µM. For `CCC(CC(C)C(=O)O)C(=O)CC/C1=C/C(C)C/C(C)=C/C(C)C(O)C(C)CCC(CCCC/C=C/C(C)CCC(C)OC(=O)CC(CC(=O)O)C(=O)O)OC(=O)CC(C(=O)O)CC(=O)OC1` (centres undefined) [ACTINOPLANIC ACID A], in [12], the half-inhibitory concentration (IC50) worked out at 230 nM.

Values taken from ChEMBL document CHEMBL1130144, “Ras farnesyltransferase: a new therapeutic target” (J Med Chem, 1997).
